From patent US8252832B2, “Kinesin inhibitors as cancer therapeutics” (Novartis AG, priority 2007, dated 2012)
Marks after values point to notes of the source that are not given here.

Test system: MV4; 11-luc disseminated AML disease
Assay: MV4; 11-luc disseminated disease model, tumor response and survival
Assay type: in vivo, mouse
Procedure: Subcutaneous tumor efficacy studies were performed using outbred athymic nu/nu mice approximately 6-8 weeks old (Charles River Laboratories, Hollister, Calif.). The efficacy study in the disseminated disease model was performed using immunodeficient NOD-SCID female mice approximately 7-8 weeks old (Jackson Laboratories, Bar Harbor, Me.). […] Routine animal care and assurance of welfare were as described above.
Human MV4; 11 acute myelogenous leukemia cells were obtained from American Tissue Culture Collection (catalog #CRL-9591, Rockville, Md.) and tested to be free of Mycoplasma sp. and murine viruses in the IMPACT1 PCR assay panel (RADIL, University of Missouri, Columbia, Mo.). For the disseminated disease model, a stable pool of MV4; 11 cells expressing the luciferase gene was received from Fangxian Sun at the Genomics Institute of the Novartis Research Foundation in San Diego, Calif. (MV4; 11-luc). The MV4; 11 cells were grown in Iscove's modified Dulbecco's medium (Mediatech Inc., catalog #15-016-CV) supplemented with 10% fetal bovine serum (JRH Biosciences, catalog #12003-1000M), 4 mM L-glutamine and 5 ng/mL recombinant human […] (GM-CSF) (R&D Systems, catalog #215-GM). MV4; 11-luc were grown in the same media, but with the addition of 2 micrograms/mL of puromycin for selection of luciferase expression. These cells were grown as suspension cultures, maintained at 37° C. in a humidified atmosphere containing 5% carbon dioxide. Cells were cultured for fewer than 10 passages prior to use. Cells were harvested at approximately 2 million cells/mL, and centrifuged at ˜800×g for 5 minutes at 4° C. and then resuspended in a cold HBSS (Mediatech Inc., catalog #21-021-CV) at a concentration of 25 million cells/mL (containing 50% Matrigel™, BD Biosciences, catalog #354234) for implantation subcutaneously (injection volume of 0.2 mL) or at a concentration of 100 million cells/mL for implantation intravenously (i.v.) via the tail vein (injection volume of 0.1 mL). Mice were irradiated with 3 gray for 3 minutes one day prior to the i.v. cell implant.
The compound IIa (free base) and SB-715992 (free base) were formulated in 20% Captisol for a dose volume of 8 mL/kg. Doses were adjusted to each animal's body weight.
For the efficacy evaluation in the disseminated disease model, female NOD-SCID mice received whole-body irradiation at 3 gray the day before tail vein injection of 10 million cells in 0.1 mL HBSS. Forty mice were randomized and enrolled on study 28 days post-implant, with a mean photon count (dorsal view+ventral view) of approximately 5×10^7 photons/second, as determined by bioluminescence imaging. Approximately 10 minutes prior to imaging, mice were injected i.p. with 150 mg/kg luciferin (Xenogen Corporation, Alameda, Calif.), followed by anesthetization with isoflurane. Photon emission was measured using a charge coupled device camera in the IVIS imaging system (Xenogen Corporation). Briefly, a gray-scale image of the mice was captured, followed by an overlay of a bioluminescence map representing the spatial distribution of photons detected from cleaved luciferin in the cancer cells expressing luciferase. Signal intensity was quantified using a customized version of the IGOR Pro version 4.09A Software (WaveMetrics, Inc., Lake Oswego, Oreg.) called Living Image version 2.50.2 (Xenogen). The sum of all detected photon counts from the dorsal+ventral views was determined. Bioluminescence of cancer cells in the animals was measured by imaging on designated days until the first mice developed hind limb paralysis due to disease burden, the main end point for when to humanely euthanize mice. The day of euthanasia for each mouse was recorded and the remaining percentage of mice surviving was plotted over time (Kaplan-Meier survival analysis). P values were calculated using the log-rank test (GraphPad Prism 4.0 software) to assess differences between treated and control groups (p<0.05 was considered significant). […]

Structure (SMILES): CC(C)(C)[C@H](c1nc(-c2cc(F)ccc2F)cn1Cc1ccccc1)N(CC[C@H](N)CF)C(=O)CO [Compound IIa]
- Median Day of Survival (0.25 mg/kg, q4d × 3, i.v): 27 days
- Δ Tumor bioluminescence, Day 12 (0.25 mg/kg, q4d × 3, i.v): 4.3 × 10^8 photons/sec
- ΔT/ΔC, Day 12 (%) (0.25 mg/kg, q4d × 3, i.v): 46%
- Median Day of Survival (0.25 mg/kg, q4d × 3, i.v, listed as COMPOUND IIa): 27** day
- Median Day of Survival (0.5 mg/kg, q4d × 3, i.v): 31 days
- Regression, Day 12 (%) (0.5 mg/kg, q4d × 3, i.v): 9* %
- Δ Tumor bioluminescence, Day 12 (0.5 mg/kg, q4d × 3, i.v): −4.0 × 10^6 photons/sec
- Median Day of Survival (0.5 mg/kg, q4d × 3, i.v, listed as COMPOUND IIa): 31** day
- Median Day of Survival (1 mg/kg, q4d × 3, i.v.): 30 days
- Regression, Day 12 (%) (1 mg/kg, q4d × 3, i.v.): 80* %
- Median Day of Survival (1 mg/kg, q4d × 3, i.v, listed as COMPOUND IIa): 30** day
